Results published in PubChem BioAssay (NCI).
“And” between values parts separate entries of the source, which are not always exact repeats. Equal values may be shown once.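 Growth conditions: 96-well plates. Treatment: test compound, 48 hours, 5 concentrations. Analysis: linear interpolation between bracketing concentrations; unreached endpoints set to highest concentration. GI50 is the concentration that inhibits growth by half. TGI marks complete inhibition of growth.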

Tests used:
Test in all cases: NCI tumour cell line growth inhibition, 48 h
[1] = tested on: T-47D breast
[2] = tested on: K-562 leukemia
[3] = tested on: NCI/ADR-RES ovarian
[4] = tested on: HOP-92 NSCLC
[5] = tested on: PC-3 prostate
[6] = tested on: SF-295 CNS
[7] = tested on: MALME-3M melanoma

Structure (SMILES)	GI50 [1]	TGI [1]	GI50 [2]	TGI [2]	GI50 [3]	TGI [3]	GI50 [4]	TGI [4]	GI50 [5]	TGI [5]	TGI [6]	TGI [7]	GI50 [6]	GI50 [7]
COc1ccc(/C(COc2c(-c3ccccc3)oc3ccccc3c2=O)=N\O)cc1	13.5 µM	41.6 µM	18.9 µM	> 50 µM	11.4 µM	39.6 µM	> 50 µM	> 50 µM	13.4 µM	35.5 µM	–	–	–	–
COc1ccc(-c2cc(=O)c3c(OC)c(OC)c(OC)cc3o2)cc1	–	62.4 µM	–	> 100 µM	–	> 100 µM	–	79.9 µM	–	–	96.9 µM	> 100 µM	–	–
COc1cc2c(c(O)c1Br)C(=O)c1c(O)cc(C[C@H](C)O)cc1[C@H]2[C@H]1c2cc(C[C@H](C)O)cc(O)c2C(=O)c2c1cc(OC)c(Br)c2O	2.04 µM and 4.09 µM	13.2 µM and 23.4 µM	2.74 µM and 6.22 µM	67.5 µM and > 100 µM	17.5 µM and 28.5 µM	59.9 µM and > 100 µM	5.31 µM and 9.42 µM	32.3 µM and 39.6 µM	2.85 µM and 4.4 µM	67.5 µM and > 100 µM	21.5 µM and 22.4 µM	17 µM and 26.1 µM	8 µM and 10.2 µM	6.65 µM and 12.8 µM
CCN(CC)CCOc1ccc(/C(=C(\Cl)c2ccccc2)c2ccccc2)cc1	1.51 µM and 1.73 µM	9.55 µM and 12.9 µM	1.55 µM	11.5 µM	5.56 µM and 3.34 µM	12.2 µM and 14.4 µM	1.58 µM	5.4 µM	2.63 µM and 2.76 µM	9.02 µM and 10.2 µM	2.54 µM and 4.02 µM	3.88 µM and 2.99 µM	1.06 µM and 1.87 µM	1.21 µM and 1.43 µM
CC/C(=C(/c1ccc(O)cc1)c1ccc(OCCNC)cc1)c1ccccc1	1.34 µM	4.68 µM	1.86 µM	4.41 µM	2.32 µM	5.85 µM	1.18 µM	3.72 µM	1.95 µM	5.45 µM	3.95 µM	–	1.95 µM	–
FC(F)(F)c1cccc(Nc2nccc(-c3cnn4nc(-c5ccccc5)ccc34)n2)c1	8.33 µM	> 25 µM	> 16.3 µM	> 25 µM	8.37 µM	> 21.7 µM	3.54 µM	10.9 µM	8.48 µM	> 20.8 µM	> 25 µM	14.1 µM	> 16.6 µM	7.23 µM
O=C1Nc2c(C(F)(F)F)cccc2[C@]1(c1ccc(O)cc1)c1ccc(OC(F)(F)F)cc1	1.18 µM	17.9 µM	8.57 µM	> 100 µM	8.78 µM	25.8 µM	5.82 µM	21.5 µM	4.31 µM	21.3 µM	22.1 µM	26.6 µM	10 µM	13 µM
COc1cc(C2NC(=O)c3ccccc3N2)ccc1OCCCCCOc1c(OC)cc(C2=NOC(c3cc(OC)c(OC)c(OC)c3)C2)cc1OC (stereo not drawn)	0.239 µM	> 100 µM	0.431 µM	> 100 µM	12.7 µM	> 51.8 µM	60.2 µM	> 100 µM	4.62 µM	> 66.5 µM	> 100 µM	–	2.54 µM	–
CC(C)c1nc(CN(C)C(=O)N[C@H](C(=O)N[C@@H](Cc2ccccc2)C[C@H](O)[C@H](Cc2ccccc2)NC(=O)OCc2cncs2)C(C)C)cs1	21.7 µM	73 µM	26.6 µM	92.1 µM	37.9 µM	> 100 µM	20.8 µM	49.5 µM	20.8 µM	79.2 µM	50.5 µM	> 57 µM	22.1 µM	22.1 µM
CC[C@@H]1C(=O)N(C)c2cnc(Nc3ccc(C(=O)NC4CCN(C)CC4)cc3OC)nc2N1C1CCCC1	0.0718 µM and 0.157 µM	> 10 µM and 6.27 µM	0.00367 µM and < 0.01 µM	> 10 µM and 3.54 µM	0.351 µM and 0.244 µM	> 10 µM and 19 µM	0.0125 µM and 0.0149 µM	0.563 µM and 2.36 µM	0.00454 µM and < 0.01 µM	> 10 µM and 19.1 µM	> 10 µM and 15 µM	2.57 µM and 3.39 µM	0.0147 µM and 0.0189 µM	1.12 µM and 1.37 µM
COc1ccc(-c2cc(=O)c3ccc(O)cc3o2)cc1OC	–	> 100 µM	–	> 100 µM	–	> 100 µM	–	> 100 µM	–	> 100 µM	> 100 µM	> 100 µM	–	–
O=c1[nH]ncc(Br)c1Br	2.12 µM	6.07 µM	–	–	2.91 µM	7.69 µM	1.79 µM	3.31 µM	5.45 µM	20.8 µM	22.5 µM	3.71 µM	8.8 µM	1.81 µM
Oc1c(CN2CCC(N3CCCCC3)CC2)cc(Cc2cc(CN3CCC(N4CCCCC4)CC3)c(O)c3ncccc23)c2cccnc12	0.51 µM	4.8 µM	0.617 µM	8.81 µM	3.12 µM	17.9 µM	3.38 µM	21 µM	1.28 µM	15.9 µM	3.58 µM	4.26 µM	1.64 µM	1.79 µM
Cn1c(=O)c2[nH]c(SCc3ccccn3)nc2n(C)c1=S	–	> 100 µM	–	> 100 µM	–	> 100 µM	–	> 100 µM	–	> 100 µM	> 100 µM	> 100 µM	–	–
Oc1ccc(CN2CCC(N3CCCCC3)CC2)c2cccnc12	23.6 µM	> 100 µM	2.23 µM	> 100 µM	24.2 µM	> 100 µM	4.51 µM	> 100 µM	7.15 µM	> 100 µM	> 100 µM	> 100 µM	68.3 µM	24.4 µM
CCC(C)c1c(Cl)nc(Cl)nc1Cl (stereo not drawn)	–	–	–	> 100 µM	–	> 100 µM	–	–	–	44.1 µM	42.2 µM	> 100 µM	–	–
N#CSc1c[nH]c2cccc(/C=C/C(=O)/C=C(/C=C/c3cccc4[nH]cc(SC#N)c34)OB(F)F)c12	0.358 µM	6.2 µM	0.297 µM	1.38 µM	4.3 µM	> 100 µM	0.309 µM	1.45 µM	0.419 µM	4.19 µM	9.16 µM	0.824 µM	2.68 µM	0.272 µM
Cn1c2ccccc2c2c(-c3ccccc3)[n+]3ccncc3nc21	55.3 µM	> 100 µM	> 100 µM	> 100 µM	> 100 µM	> 100 µM	96.6 µM	> 100 µM	> 100 µM	> 100 µM	> 100 µM	> 100 µM	> 100 µM	93.8 µM
CC[C@]1(O)C[C@@H]2CN(CCc3c([nH]c4ccccc34)[C@@](C(=O)OC)(c3cc4c(cc3OC)N(C)[C@H]3[C@@](O)(C(=O)OC)[C@H](OC(C)=O)[C@]5(CC)C=CCN6CC[C@]43[C@@H]65)C2)C1	8.59 µM	> 100 µM	< 0.01 µM	14.6 µM	< 0.0445 µM	2.68 µM	< 0.01 µM	–	< 0.01 µM	22.2 µM	0.991 µM	14.1 µM	< 0.01 µM	< 0.01 µM

Structure (SMILES)	GI50 [1]	TGI [1]	GI50 [2]	TGI [2]	GI50 [3]	TGI [3]	GI50 [4]	TGI [4]	GI50 [5]	TGI [5]	TGI [6]	TGI [7]	GI50 [6]	GI50 [7]
O/N=C/C1c2ccccc2-c2ccccc21	–	56.3 µM	–	67.3 µM	–	33.8 µM	–	28 µM	–	36.9 µM	53.4 µM	31.9 µM	–	–
Cc1ccc2c(c1)[n+]([O-])c(N)n[n+]2[O-]	–	> 100 µM	–	> 100 µM	–	> 100 µM	–	–	–	> 100 µM	> 100 µM	–	–	–
O=C1CCCCN1CCCCC#Cc1ccccc1C#Cc1ccc([N+](=O)[O-])cc1	3.52 µM	18.7 µM	3.6 µM	22.3 µM	3.35 µM	12.3 µM	4.39 µM	27.4 µM	–	–	–	> 100 µM	–	37.2 µM
NC(=O)c1ccc(I)c(N)c1	> 100 µM	> 100 µM	–	–	> 100 µM	> 100 µM	> 100 µM	> 100 µM	–	–	> 100 µM	> 100 µM	> 100 µM	> 100 µM
COc1ccc(NC2=CC(=O)C(=O)c3ccccc32)nn1	–	11.9 µM	–	1.31 µM	–	3.65 µM	–	–	–	38.9 µM	2.15 µM	1.96 µM	–	–
Nc1cc(N)c2nc(-c3ccccc3)c(Nc3ccc(Cl)c(Cl)c3)nc2c1	11.6 µM	31.1 µM	3.57 µM	> 100 µM	15.4 µM	55.3 µM	–	–	3.12 µM	15.1 µM	27.9 µM	24.3 µM	12.4 µM	10.3 µM
O=C(N/N=C/c1ccccc1O)c1ccccc1Nc1ccnc(C(F)(F)F)c1	1.07 µM	> 78.4 µM	0.53 µM	> 100 µM	0.433 µM	30.1 µM	0.388 µM	10.9 µM	0.295 µM	10.1 µM	27.6 µM	19.2 µM	0.573 µM	0.858 µM
C=CC(=O)N1CC2(CCN(c3nc(OC4CCN(CCCOC)CC4)nc4c(OCC(F)(F)F)c(-c5c(C)ccc6[nH]ncc56)c(C5CC5)cc34)CC2)C1	2.71 µM	9.46 µM	2.07 µM	5.84 µM	14.8 µM	36.6 µM	3.53 µM	11 µM	2.61 µM	9.86 µM	5.65 µM	3.14 µM	2.08 µM	1.66 µM
Oc1ccc(NCc2nc3ccccc3[nH]2)cc1	31.2 µM	> 100 µM	–	–	> 100 µM	> 100 µM	12.8 µM	53 µM	33.6 µM	> 100 µM	97.2 µM	> 100 µM	24.4 µM	76.3 µM
O=C1c2cc(Cl)ccc2S(=O)(=O)c2c(NCCCNCCO)nc3ccccc3c21	1.24 µM	2.96 µM	–	–	3.05 µM	10.8 µM	1.01 µM	2.44 µM	1.53 µM	3.66 µM	12.4 µM	2.56 µM	3.26 µM	1.19 µM
OCc1c[nH]c2ccccc12	16 µM	> 100 µM	33.8 µM	> 100 µM	23.2 µM	71.4 µM	9.35 µM	63.5 µM	15.5 µM	45.3 µM	40.9 µM	–	19.4 µM	–
C[C@@H]1OC(O)[C@@H](F)[C@H](O)[C@@H]1O (stereo partly drawn)	> 100 µM	> 100 µM	–	–	> 100 µM	> 100 µM	> 100 µM	> 100 µM	> 100 µM	> 100 µM	> 100 µM	> 100 µM	> 100 µM	> 100 µM
Nc1nc(Cl)c2ncn(Cc3ccc(C45CC6CC(CC(C6)C4)C5)c(O)c3)c2n1	3.75 µM	24.5 µM	–	–	3.15 µM	16.4 µM	1.48 µM	6.19 µM	1.73 µM	4.44 µM	17.4 µM	16.3 µM	3.29 µM	2.22 µM
COc1cc([N+](=O)[O-])cc2c3c(n(C)c12)[C@@]1(C)CCC2c4ccc(OCc5ccccc5)cc4CCC2C1C3 (stereo partly drawn)	43.1 µM	> 100 µM	62.5 µM	> 100 µM	> 100 µM	> 100 µM	–	–	> 100 µM	> 100 µM	> 100 µM	> 100 µM	35 µM	> 100 µM
CC[C@@]1(O)C(=O)OCc2c1cc1n(c2=O)Cc2c-1nc1cc3c(cc1c2CCl)OCO3	< 0.01 µM	> 71.9 µM	–	–	< 0.01 µM	0.133 µM	< 0.01 µM	0.466 µM	0.0392 µM	> 36.4 µM	0.0252 µM	2 µM	< 0.01 µM	0.0629 µM
CS(=O)(=O)c1ccc([C@H]2O[C@@H](CO)C[C@]2(O)c2ccc(S(C)(=O)=O)cc2)cc1	–	–	> 100 µM	> 100 µM	> 100 µM	> 100 µM	> 100 µM	> 100 µM	> 100 µM	> 100 µM	> 100 µM	> 100 µM	> 100 µM	> 100 µM
COc1cc(C2=C(c3ccccc3)COC2=O)cc(OC)c1OC	20.9 µM	> 100 µM	0.289 µM	> 100 µM	–	–	13.6 µM	> 100 µM	1.35 µM	> 100 µM	2.9 µM	> 100 µM	0.324 µM	0.439 µM
C=CCCCCCCCCC(=O)[O][Sn]([CH2]CCC)([CH2]CCC)[CH2]CCC	–	–	0.181 µM	0.457 µM	0.163 µM	0.32 µM	0.075 µM	0.24 µM	0.187 µM	0.409 µM	0.337 µM	0.287 µM	0.159 µM	0.135 µM
CC(C)(CC(=O)Nc1ccccc1)C(=O)O	–	> 100 µM	–	> 100 µM	–	> 100 µM	–	> 100 µM	–	> 100 µM	> 100 µM	–	–	–
